One block for each molecule: values may come before it.
Legend:
[1] = test system: retinal vascular permeability (RVP) in rats; test: Retinal vascular permeability by vitreous fluorophotometry after intravitreal injection; assay type: in vivo, rat; settings: for RVP (vitreous fluorescein intensity): CA-1 200 ng/eye, BSS control 7.4 au; for effect on CA-1 induced permeability: co-injection of serpin family proteins
Experimental: (§1) To measure retinal vascular permeability, 265 male Sprague Dawley and 12 male Long-Evans rats (Taconic Farms, Germantown, N.Y.) with initial body weights of 250 g were used. Experiments were performed in accordance with guidelines from the Association for Research in Vision and Opthalmology and approval from the Animal Care and Use committee of the Joslin Diabetes Center. Video fluorescein angiography was performed using a scanning laser opthalmoscope (Rodenstock Instrument, Munich, Germany) (Horio et al., Diabetologia 47:113-123 (2004)). Vitreous fluorophotometry and administration of fluorescein-dextran was performed as described previously (Aiello et al., Diabetes 46:1473-1480 (1997)).
Intravitreal injection of CA-1 increased RVP, as measured by vitreous fluorophotometry, in a dose-dependent manner (FIG. 3A), with a maximal increase of 2.3 fold (p<0.05) at 2 μg. […] The effect of a single dose of CA-1 on RVP was sustained at 59% over control at 24 hours post injection (FIG. 3B).

[2] = test system: retinal vascular permeability (RVP) in rats; test: Retinal Evans blue permeability after intravitreal lysed RBC or CA-1; assay type: in vivo, rat
Experimental: To prepare lysed RBCs, 3 ml rat blood in 15 ml saline was centrifuged at 1,000 g for 10 minutes; the plasma and buffy coat were discarded. The RBCs were then washed in 12 ml saline. The packed cells were frozen in liquid nitrogen for 5 minutes and then allowed to thaw at room temperature. The lysed RBCs were centrifuged at 12,000 rpm for 30 minutes. The supernatant was used for experiment. […] Approximate 21 hours later, Evans blue was injected at a dosage of 30 mg/kg. After the dye had circulated for 3 hours the rats were perfused via the left ventricle with saline. The retina were harvested and Evans blue dye was extracted by incubation in 0.3 ml formamide for 20 hours at 60° C. The extract was centrifuged (14,000 rpm for 30 minutes). The absorbance of the filtrate was measured with a spectrophotometer at 620 nm. The concentration of dye in the extracts was calculated from a standard curve.

[3] = test system: blood-brain barrier permeability in rats; test: Blood-brain barrier permeability to Evans blue after subdural infusion; assay type: in vivo, rat
Experimental: Approximately 22 hours later, 0.7 ml Evans blue was injected through a jugular vein catheter. After the dye circulated for 120 minutes, the rats were perfused with 50 ml saline through the left ventricle at 110 mmHg pressure. After decapitation, the brain was weighed and Evan's blue was extracted by incubating each brain in 1 ml of formamide for 20 hours at 60° C. The extract was centrifuged (14,000 rpm for 30 minutes). The absorbance of the filtrate was measured with a spectrophotometer at 620 nm. The concentration of dye in the extracts was calculated from a standard curve of Evans blue in formamide, normalized to the brain weight, and expressed per gram of tissue.

[4] = test system: retinal vascular permeability (RVP) in rats; test: Video fluorescein angiography of rat retina after intravitreal injection; assay type: in vivo
Experimental: as §1
Carbonic anhydrase was not detected by either mass spectroscopy or western blot analysis in the vitreous of untreated Sprague Dawley rats.

[5] = test system: retina of streptozotocin diabetic rats; test: OCT imaging of retinal thickness in diabetic rats after intravitreal CA-1; assay type: in vivo, rat
Experimental: Rats had diabetes induced by intraperitoneal injection of streptozotocin (55 mg/kg) after overnight fast. Diabetes was confirmed after 24 hours with blood glucose greater than 250 mg/dl. After 2 weeks of diabetes, rats were injected intravitreally with CA-1 or BSS and the retinas imaged by OCT after 48 hours. Retinal ultrastructure was imaged and quantitatively measured using a high-speed, ultrahigh resolution OCT system with Fourier/spectral domain detection. Using a broadband superluminescent diode light source (Superlum Diodes Limited, Moscow, Russia) with a 155 nm bandwidth, a 2.6 μm axial resolution in tissue was achieved after digital spectral shaping. The imaging speed was 26,000 axial scans per second and the system sensitivity was 96 dB with an axial (depth) scan range of 1.3 mm in tissue. The OCT research instrument was designed for small animal retinal imaging and used a post-objective scanning microscope with a 10 μm transverse resolution. Corneal refraction was compensated with a coverslip and Goniosol (CIBA Vision Ophthalmics). Each data set consisted of 256 images with 512 axial scans per image, acquired in a raster pattern on the retina. Measurements of intraretinal layer thicknesses were performed on individual cross sectional OCT images.

[6] = test system: RVP in rat eyes injected with human vitreous; test: Transplant of human vitreous into rat vitreous, RVP measurement; assay type: in vivo; settings: vitreous pretreated with 10 μM
Experimental: In these tests, 10 μl of human vitreous was injected into the rat vitreous compartment and the response on retinal vascular permeability was measured.

[7] = intravitreal injection of 100 μM
[8] = diabetic rat, 48 hours after intravitreal injection, OCT

Molecule: CC(=O)N[C@@H](CC(C)C)C(=O)N[C@@H](CC(C)C)C(=O)N[C@H](C=O)CCCNC(=N)N [leupeptin, reference compound]
reduction of CA-1 stimulated RVP [1, 7]: 71%

EC50 as final concentration in vitreous ([1]; following dilution in 100 uL of rat vitreous): about 670 pg/μL | EC50 for increase of RVP ([1]; intravitreal injection): 67 ng
Molecule: CA-1: carbonic anhydrase-1, extracellular erythrocyte enzyme injected as vascular permeability factor
RVP compared with eyes that received BSS ([2]; intravitreal injection, Evans blue): 3.0 fold | increase of RVP ([1]; 200 ng/eye (20 μg/ml) intravitreal, vs BSS, P<0.05): 2.4 fold | maximal increase of RVP ([1]; at 2 μg intravitreal, p<0.05): 2.3 fold | RVP (vitreous fluorescein intensity) ([1]; intravitreal injection): 17.4 au | RVP over control ([1]; single dose, 24 hours post injection): 59% | Evan's blue leakage on posterior and anterior surfaces of the brain ([3]; subdural infusion, 24 hours): induced intense focal areas of Evan's blue leakage | increase of permeability in brain compared to BSS ([3]; subdural infusion, Evan's blue quantification, P<0.05): 2.3 fold | retinal vascular leakage (fluorescein and 2000 kDa fluorescein-dextran) ([4]; 48 hours after intravitreal injection): focal areas of retinal vascular leakage were observed | retinal fluorescein leakage ([4]; intravitreal 2 μg/ml, at 30 minutes, vs baseline or BSS): increased retinal fluorescein leakage | increase of ONL share of retinal thickness compared with BSS-treated diabetic rats ([5]; 48 hours): 17% | increase of ONL share of retinal thickness compared with nondiabetic rats ([5]; 48 hours): 18% | ONL share of overall retinal thickness ([5]; diabetic rat, 48 hours): 38% | increase in outer nuclear layer (ONL) thickness vs contralateral saline vehicle eye [5, 8]: 30% | increase in retina thickness vs contralateral saline vehicle eye [5, 8]: 12%

Molecule: CC(=O)Nc1nnc(S(N)(=O)=O)s1 [acetazolamide, reference compound]
effect on increase in RVP by lysed RBC ([2]; pretreatment of lysed RBC with 10 μM, P<0.05): blocked | effect on RVP in rat eyes injected with vitreous from noDR and NDM groups [6]: did not affect | RVP in rat eyes injected with vitreous from subjects with PDR ([6]; reduced from 13.67±5.23, P=0.017, n=5): 9.20±3.85 | effect on basal RVP ([1]; 10 μM): no effect | inhibition at 10 µM ([1]; Rattus norvegicus, co-injection of 10 μM, p<0.05, read-out: inhibition of CA-1 induced RVP): 68% | effect on increase in RVP induced by CA-1 ([4]; co-injection 10 μM with CA-1): blocked

Molecule: VEGF
RVP (vitreous fluorescein intensity) ([1]; intravitreal injection): 14.5 au

Molecule: Hoe 140 [reference compound]
reduction of CA-1 stimulated RVP ([1]; co-injection with CA-1): 67%

Molecule: aprotinin [reference compound]
reduction of CA-1 stimulated RVP [1, 7]: 50%

B1: PEDF: pigment epithelium-derived factor, serpin family protein (protein, UniProt P36955 20-418, looked up)
Pigment epithelium-derived …: QNPASPPEEGSPDPDSTGALVEEEDPFFKVPVNKLAAAVSNFGYDLYRVRSSTSPTTNVLLSPLSVATALSALSLGAEQRTESIIHRALYYDLISSPDIHGTYKELLDTVTAPQKNLKSASRIVFEKKLRIKSSFVAPLEKSYGTRPRVLTGNPRLDLQEINNWVQAQMKGKLARSTKEIPDEISILLLGVAHFKGQWVTKFDSRKTSLEDFYLDEERTVRVPMMSDPKAVLRYGLDSDLSCKIAQLPLTGSMSIIFFLPLKVTQNLTLIEESLTSEFIHDIDRELKTVQAVLTVPKLKLSYEGEVTKSLQEMKLQSLFDSPDFSKITGKPIKLTQVEHRAGFEWNEDGAGTTPSPGLQPAHLTFPLDYHLNQPFIFVLRDTDTGALLFIGKILDPRGP
effect on CA-1 induced permeability [1]: did not block

B2: angiotensinogen: serpin family protein (protein, UniProt P01019 25-476, looked up)
Angiotensinogen: DRVYIHPFHLVIHNESTCEQLAKANAGKPKDPTFIPAPIQAKTSPVDEKALQDQLVLVAAKLDTEDKLRAAMVGMLANFLGFRIYGMHSELWGVVHGATVLSPTAVFGTLASLYLGALDHTADRLQAILGVPWKDKNCTSRLDAHKVLSALQAVQGLLVAQGRADSQAQLLLSTVVGVFTAPGLHLKQPFVQGLALYTPVVLPRSLDFTELDVAAEKIDRFMQAVTGWKTGCSLMGASVDSTLAFNTYVHFQGKMKGFSLLAEPQEFWVDNSTSVSVPMLSGMGTFQHWSDIQDNFSVTQVPFTESACLLLIQPHYASDLDKVEGLTFQQNSLNWMKKLSPRTIHLTMPQLVLQGSYDLQDLLAQAELPAILHTELNLQKLSNDRIRVGEVLNSIFFELEADEREPTESTQQLNKPEVLEVTLNRPFLFAVYDQSATALHFLGRVANPLSTA
effect on CA-1 induced permeability [1]: did not block

B3: C1-INH: Complement-1 Inhibitor, inhibits the serum protease kallikrein (protein, UniProt P05155 23-500, looked up)
Plasma protease C1 inhibitor: NPNATSSSSQDPESLQDRGEGKVATTVISKMLFVEPILEVSSLPTTNSTTNSATKITANTTDEPTTQPTTEPTTQPTIQPTQPTTQLPTDSPTQPTTGSFCPGPVTLCSDLESHSTEAVLGDALVDFSLKLYHAFSAMKKVETNMAFSPFSIASLLTQVLLGAGENTKTNLESILSYPKDFTCVHQALKGFTTKGVTSVSQIFHSPDLAIRDTFVNASRTLYSSSPRVLSNNSDANLELINTWVAKNTNNKISRLLDSLPSDTRLVLLNAIYLSAKWKTTFDPKKTRMEPFHFKNSVIKVPMMNSKKYPVAHFIDQTLKAKVGQLQLSHNLSLVILVPQNLKHRLEDMEQALSPSVFKAIMEKLEMSKFQPTLLTLPRIKVTTSQDMLSIMEKLEFFDFSYDLNLCGLTEDPDLQVSAMQHQTVLELTETGVEAAAASAISVARTLLVFEVQQPFLFVLWDQQHKFPVFMGRVYDPRA
effect on VEGF-induced retinal fluorescein permeability ([1]; co-injection): did not affect | reduction of CA-1 stimulated RVP ([1]; co-injection with CA-1): 92% | effect on CA-1-induced cerebral vascular permeability ([3]; subdural, with CA-1): blocked
